# Measurements taken from ChEMBL document CHEMBL1909046, “DrugMatrix in vitro pharmacology data”.
# What was measured:
# [1] = biological target: Tyrosine-protein kinase Lck (Homo sapiens, UniProt P06239); experiment: DRUGMATRIX: Protein Tyrosine Kinase, LCK enzyme inhibition (substrate: Poly(Glu:Tyr)); assay type: cell-based, Insect cells; details: Not Active = under 50% inhibition at 10 µM
# [2] = biological target: T1, Muscarinic acetylcholine receptor M4 (Homo sapiens, UniProt P08173); assay type: cell membranes, CHO-K1, Membrane; details: cho-k1; further: in other assays of this panel Not Active means under 50% inhibition at 10 µM
# T1 sequence (P08173 whole entry): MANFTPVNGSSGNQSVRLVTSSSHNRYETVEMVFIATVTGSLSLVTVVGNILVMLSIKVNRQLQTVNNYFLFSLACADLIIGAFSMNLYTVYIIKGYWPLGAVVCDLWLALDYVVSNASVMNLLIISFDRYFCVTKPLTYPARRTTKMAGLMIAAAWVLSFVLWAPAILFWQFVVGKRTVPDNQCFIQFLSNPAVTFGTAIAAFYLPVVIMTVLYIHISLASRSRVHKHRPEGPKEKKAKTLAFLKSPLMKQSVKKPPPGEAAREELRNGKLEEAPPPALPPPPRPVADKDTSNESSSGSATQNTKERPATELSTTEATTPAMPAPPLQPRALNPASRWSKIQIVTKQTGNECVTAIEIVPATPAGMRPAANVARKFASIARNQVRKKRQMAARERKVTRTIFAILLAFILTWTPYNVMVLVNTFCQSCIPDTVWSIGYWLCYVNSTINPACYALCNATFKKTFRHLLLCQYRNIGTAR
# [3] = biological target: Mitogen-activated protein kinase 3 (Homo sapiens, UniProt P27361); experiment: DRUGMATRIX: Protein Serine/Threonine Kinase, ERK1 enzyme inhibition (substrate: Myelin Basic Protein); parameters: species or system Escherichia coli; details: Not Active = under 50% inhibition at 10 µM
# [4] = biological target: T2, Cholecystokinin receptor type A (Homo sapiens, UniProt P32238); assay type: cell membranes, Membrane; details: 1321-n1; further: in other assays of this panel Not Active means under 50% inhibition at 10 µM
# T2 sequence (P32238 whole entry): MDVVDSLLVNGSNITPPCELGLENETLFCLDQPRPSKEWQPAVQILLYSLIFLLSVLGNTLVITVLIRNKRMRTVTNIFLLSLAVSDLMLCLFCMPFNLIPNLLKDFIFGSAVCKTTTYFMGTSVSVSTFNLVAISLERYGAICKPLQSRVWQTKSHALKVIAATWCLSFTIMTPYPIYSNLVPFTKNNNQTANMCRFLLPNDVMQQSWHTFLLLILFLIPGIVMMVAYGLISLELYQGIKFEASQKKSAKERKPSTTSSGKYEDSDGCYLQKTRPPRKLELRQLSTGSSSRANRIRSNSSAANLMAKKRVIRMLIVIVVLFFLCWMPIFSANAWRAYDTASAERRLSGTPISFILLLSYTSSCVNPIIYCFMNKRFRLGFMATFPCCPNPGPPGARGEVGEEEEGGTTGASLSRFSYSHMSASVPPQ
# [5] = DRUGMATRIX: Glutamate, NMDA, Agonism radioligand binding (ligand: [3H] CGP-39653); assay type: cell membranes, Rattus norvegicus, Wistar, Cerebral cortex, Membrane; details: Not Active = under 50% inhibition at 10 µM
# Cytochrome P450 2D6 = Cytochrome P450 2D6 (Homo sapiens, UniProt P10635); details: bti-tn-5b1-4; further: in other assays of this panel Not Active means under 50% inhibition at 10 µM
# Adenosine receptor A2a = Adenosine receptor A2a (Homo sapiens, UniProt P29274); experiment: DRUGMATRIX: Adenosine A2A radioligand binding (ligand: […]); assay type: cell membranes, HEK293, Membrane; details: hek293; Not Active = under 50% inhibition at 10 µM
# Estrogen receptor = biological target: T3, Estrogen receptor (Homo sapiens, UniProt P03372); details: sf9; further: in other assays of this panel Not Active means under 50% inhibition at 10 µM
# T3 sequence (P03372 whole entry): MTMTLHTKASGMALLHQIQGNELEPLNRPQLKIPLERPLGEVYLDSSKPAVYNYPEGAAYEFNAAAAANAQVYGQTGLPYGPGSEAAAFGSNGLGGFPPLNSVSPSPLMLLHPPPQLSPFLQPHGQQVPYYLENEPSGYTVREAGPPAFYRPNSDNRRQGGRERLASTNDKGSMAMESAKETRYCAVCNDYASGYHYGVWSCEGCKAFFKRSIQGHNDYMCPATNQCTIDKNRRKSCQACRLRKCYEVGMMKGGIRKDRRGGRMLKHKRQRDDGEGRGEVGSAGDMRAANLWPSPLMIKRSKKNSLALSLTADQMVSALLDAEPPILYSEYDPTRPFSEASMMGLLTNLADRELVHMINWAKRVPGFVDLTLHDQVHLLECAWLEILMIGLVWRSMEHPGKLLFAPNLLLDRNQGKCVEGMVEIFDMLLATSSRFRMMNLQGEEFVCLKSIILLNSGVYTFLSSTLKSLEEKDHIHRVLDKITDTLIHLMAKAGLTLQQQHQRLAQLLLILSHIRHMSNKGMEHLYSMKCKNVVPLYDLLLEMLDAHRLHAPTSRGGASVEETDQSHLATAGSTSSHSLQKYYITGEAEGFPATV
# Chain of Cytochrome P450 2D6 (P10635 whole entry): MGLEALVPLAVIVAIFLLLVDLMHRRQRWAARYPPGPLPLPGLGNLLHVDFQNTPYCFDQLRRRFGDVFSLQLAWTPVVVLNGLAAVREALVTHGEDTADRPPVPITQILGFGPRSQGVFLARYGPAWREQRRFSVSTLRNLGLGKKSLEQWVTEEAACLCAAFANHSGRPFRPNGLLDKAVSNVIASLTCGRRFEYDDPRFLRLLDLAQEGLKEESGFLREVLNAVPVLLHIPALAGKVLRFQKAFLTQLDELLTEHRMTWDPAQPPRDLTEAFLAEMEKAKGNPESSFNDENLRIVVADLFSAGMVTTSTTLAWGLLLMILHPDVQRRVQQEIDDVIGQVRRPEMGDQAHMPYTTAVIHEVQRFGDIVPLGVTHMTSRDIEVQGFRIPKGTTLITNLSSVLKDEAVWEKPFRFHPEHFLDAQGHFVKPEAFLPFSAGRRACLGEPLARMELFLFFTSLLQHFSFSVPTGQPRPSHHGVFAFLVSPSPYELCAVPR
# Chain of Adenosine receptor A2a (P29274 whole entry): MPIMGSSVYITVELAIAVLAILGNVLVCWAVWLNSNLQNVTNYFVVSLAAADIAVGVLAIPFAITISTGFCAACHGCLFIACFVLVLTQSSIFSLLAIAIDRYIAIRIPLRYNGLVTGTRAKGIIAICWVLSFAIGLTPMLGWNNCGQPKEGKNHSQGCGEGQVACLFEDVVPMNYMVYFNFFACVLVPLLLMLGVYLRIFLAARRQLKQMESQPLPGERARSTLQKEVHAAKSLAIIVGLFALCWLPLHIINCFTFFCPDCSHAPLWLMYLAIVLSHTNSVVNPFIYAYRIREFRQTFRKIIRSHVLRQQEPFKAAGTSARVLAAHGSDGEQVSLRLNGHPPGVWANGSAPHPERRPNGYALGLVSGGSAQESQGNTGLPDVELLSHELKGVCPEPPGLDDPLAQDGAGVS
# Chain of Mitogen-activated protein kinase 3 (P27361 whole entry): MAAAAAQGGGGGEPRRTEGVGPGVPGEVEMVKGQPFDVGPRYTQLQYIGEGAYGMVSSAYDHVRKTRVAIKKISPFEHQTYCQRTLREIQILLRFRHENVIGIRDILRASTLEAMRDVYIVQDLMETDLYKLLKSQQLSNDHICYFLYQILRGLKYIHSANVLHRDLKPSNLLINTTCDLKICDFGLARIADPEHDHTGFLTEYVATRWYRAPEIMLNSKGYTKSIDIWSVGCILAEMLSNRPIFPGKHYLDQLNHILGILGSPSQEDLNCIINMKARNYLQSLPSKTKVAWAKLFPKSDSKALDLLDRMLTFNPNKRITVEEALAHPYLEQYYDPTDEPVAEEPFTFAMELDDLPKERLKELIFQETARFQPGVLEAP
# Chain of Tyrosine-protein kinase Lck (P06239 whole entry): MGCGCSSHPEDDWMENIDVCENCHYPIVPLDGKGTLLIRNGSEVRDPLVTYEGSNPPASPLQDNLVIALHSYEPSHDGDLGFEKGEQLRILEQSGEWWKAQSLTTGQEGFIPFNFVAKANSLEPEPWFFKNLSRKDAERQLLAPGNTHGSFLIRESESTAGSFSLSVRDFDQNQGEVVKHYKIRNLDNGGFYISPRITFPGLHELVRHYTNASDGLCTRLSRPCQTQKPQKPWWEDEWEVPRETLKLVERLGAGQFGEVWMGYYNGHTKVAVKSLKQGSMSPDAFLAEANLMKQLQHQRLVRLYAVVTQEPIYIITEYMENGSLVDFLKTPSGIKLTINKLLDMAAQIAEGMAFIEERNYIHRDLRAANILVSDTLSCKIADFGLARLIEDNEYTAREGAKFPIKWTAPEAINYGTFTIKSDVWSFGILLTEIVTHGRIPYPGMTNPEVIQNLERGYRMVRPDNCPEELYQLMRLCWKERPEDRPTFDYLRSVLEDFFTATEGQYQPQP
Molecule,IC50 ([1]; insect cells),IC50 [2],IC50 [3],IC50 [4],IC50 [5],Ki [5],IC50 (Cytochrome P450 2D6),Ki (Cytochrome P450 2D6),IC50 (Adenosine receptor A2a),IC50 (Estrogen receptor),IC50 ([1]; read-out: IC50) [µM],Ki ([1]; insect cells),Ki [2],Ki [3],Ki [4],Ki (Adenosine receptor A2a),Ki (Estrogen receptor)
O=C1C(CC[S+]([O-])c2ccccc2)C(=O)N(c2ccccc2)N1c1ccccc1 (configuration not stated) [SULFINPYRAZONE],Not Active,Not Active,Not Active,Not Active,Not Active,Not Active,Not Active,Not Active,Not Active,Not Active,–,–,–,–,–,–,–
NC(=O)N1C(=O)/C(=C(\O)c2cccs2)c2cc(Cl)ccc21 [TENIDAP],Not Active,Not Active,Not Active,Not Active,Not Active,Not Active,Not Active,Not Active,Not Active,Not Active,–,–,–,–,–,–,–
COc1cc2nc(N3CCN(C(=O)C4CCCO4)CC3)nc(N)c2cc1OC (configuration not stated) [TERAZOSIN],Not Active,Not Active,Not Active,Not Active,Not Active,Not Active,Not Active,Not Active,Not Active,Not Active,–,–,–,–,–,–,–
CS(=O)(=O)c1ccc([C@@H](O)[C@@H](CO)NC(=O)C(Cl)Cl)cc1 [THIAMPHENICOL],Not Active,Not Active,Not Active,Not Active,Not Active,Not Active,Not Active,Not Active,Not Active,Not Active,–,–,–,–,–,–,–
CCN(CC)CCNC(=O)c1cc(S(C)(=O)=O)ccc1OC [TIAPRIDE],Not Active,Not Active,Not Active,Not Active,Not Active,Not Active,Not Active,Not Active,Not Active,Not Active,–,–,–,–,–,–,–
NC1CCN(c2nc3c(cc2F)c(=O)c(C(=O)O)cn3-c2ccc(F)cc2F)C1 (configuration not stated) [TOSUFLOXACIN],Not Active,Not Active,Not Active,Not Active,Not Active,Not Active,Not Active,Not Active,Not Active,Not Active,–,–,–,–,–,–,–
O=C(Nc1ccc(Br)cc1)c1cc(Br)cc(Br)c1O [TRIBROMSALAN],–,Not Active,Not Active,Not Active,Not Active,Not Active,Not Active,Not Active,Not Active,Not Active,5.02,–,–,–,–,–,–
CC(c1cc2ccccc2s1)N(O)C(N)=O (configuration not stated) [ZILEUTON],Not Active,Not Active,Not Active,Not Active,Not Active,Not Active,Not Active,Not Active,Not Active,Not Active,–,–,–,–,–,–,–
MANGANESE CHLORIDE ANHYDROUS,Not Active,Not Active,Not Active,Not Active,Not Active,Not Active,Not Active,Not Active,Not Active,Not Active,–,Not Active,Not Active,Not Active,Not Active,Not Active,Not Active
SODIUM ORTHOVANAD,Not Active,Not Active,Not Active,Not Active,Not Active,Not Active,Not Active,Not Active,Not Active,Not Active,–,Not Active,Not Active,Not Active,Not Active,Not Active,Not Active
